22 molecules from patent publication US10316017B2, “COT modulators and methods of use thereof” (Gilead Sciences, Inc., priority 2015, dated 2019) can be followed below.

The term EC50 denotes the concentration that produces a half-maximal response. By IC50 is commonly meant the concentration that gives 50% inhibition.

One assay relates to TNFα production in LPS-stimulated human monocytes. The assay can be described thus: Cot Monocyte TNFα Cell Based Assay. As to conditions: Homo sapiens, Monocyte, LPS-stimulated human monocytes, TNFα TR-FRET; read-out: EC50 TNF. How it is done: Example 60: Cot Monocyte TNFα Cell Based Assay
The cell suspension was then plated at a density of 5,000 cells/well onto black 384 well Greiner clear bottom plates. Plates were pre-spotted with test compounds and serially diluted in DMSO where 200 nL/well were delivered using the Echo 550 acoustic liquid dispenser (Labcyte®) for a final DMSO concentration of 0.5%. Plated cells were treated with compound for 1 hour at 37° C. Cells were then stimulated with 50 pg/ml of LPS (Sigma) excluding outside columns of plate used for unstimulated cell control wells. Cells were incubated for an additional 4 hours at 37° C. Cells were then spun out of the media and 5 ul of sample were taken and analyzed for total TNFα content using the TR-FRET Human TNFα detection system (CisBio). This system utilizes two labeled antibodies (cryptate and XL665) that bind to two different epitopes of the TNFα molecule and produce FRET signal proportional to the concentration of TNFα in the sample. Detection antibodies are mixed 50:50 and 5 μL were dispensed into each well. Plates were covered with clear seals and incubated at room temp overnight. […] Percent of control was calculated as follows: % Control=100×(RatioSample−Ratio0% stimulation)/(Ratio100% Stimulation−Ratio0% Stimulation) where unstimulated cells (0% stimulation) were the negative control and stimulated cells (100% stimulation) were used as the positive control.
(Time-resolved FRET reads energy transfer from a long-lived donor to a nearby acceptor.)
Regarding `CC(C)(C)CNc1c(C#N)cnc2c(C#N)cc(N[C@@H](c3ccc(F)cc3)c3cn(C4(c5cccnn5)CC4)nn3)cc12` [Example 987, (S)-6-(((4-fluorophenyl)(1-(1-(pyridazin-3-yl)cyclopropyl)-1H-1,2,3-triazol-4-yl)methyl)amino)-4-(neopentylamino)quinoline-3,8-dicarbonitrile], the EC50 worked out at 69 nM.

For `[2H][C@](Nc1cc(Cl)c2ncc(C#N)c(N[C@H](CCS(C)(=O)=O)c3ccccc3)c2c1)(c1ccc(F)cc1)c1cn(C2CC2)nn1` [Example 932, 8-chloro-6-(((1-cyclopropyl-1H-1,2,3-triazol-4-yl)(4-fluorophenyl)methyl-d)amino)-4-(((R)-3-(methylsulfonyl)-1-phenylpropyl)amino)quinoline-3-carbonitrile], the concentration for a half-maximal effect (EC50) worked out at 505 nM.

With `Cc1cc(C#N)ccc1[C@H](Nc1cc(Cl)c2ncc(C#N)c(NCC(C)(C)C)c2c1)c1cn(C2(C(F)(F)F)CC2)nn1` [Example 1099, (S)-8-chloro-6-(((4-cyano-2-methylphenyl)(1-(1-(trifluoromethyl)cyclopropyl)-1H-1,2,3-triazol-4-yl)methyl)amino)-4-(neopentylamino)quinoline-3-carbonitrile], the EC50 was 188 nM.

`CC(C)(C)CNc1c(C#N)cnc2c(Cl)cc(N[C@@H](c3ccccc3)c3cn(C4(C(F)F)CC4)nn3)cc12` [Example 1058, (S)-8-chloro-6-(((1-(1-(difluoromethyl)cyclopropyl)-1H-1,2,3-triazo1-4-yl)(phenyl)methyl)amino)-4-(neopentylamino)quinoline-3-carbonitrile]: the EC50 was determined as 314 nM.

The assay is the same for the next values; noted with them: Homo sapiens, Monocyte, TNFα in LPS-stimulated human monocytes; read-out: EC50 TNF.
As for `[2H][C@@](Nc1cc(Cl)c2ncc(C#N)c(N[C@H](CCC#N)c3ccccc3)c2c1)(c1cn(C2CC2)nn1)c1cccc(C#N)c1C` [Example 136, 8-chloro-4-(((R)-3-cyano-1-phenylpropyl)amino)-6-(((S)-(3-cyano-2-methylphenyl)(1-cyclopropyl-1H-1,2,3-triazol-4-yl)methyl-d)amino) quinoline-3-carbonitrile], the EC50 was 20 nM.

In the case of `Cc1ccccc1[C@H](Nc1cc(Cl)c2ncc(C#N)c(Nc3cnc(F)c(F)c3)c2c1)c1c[nH]nn1` [Example 396, (S)-8-chloro-4-((5,6-difluoropyridin-3-yl)amino)-6-((o-tolyl(1H-1,2,3-triazol-4-yl)methyl)amino)quinoline-3-carbonitrile], the concentration giving a half-maximal response (EC50) worked out at 1230 nM.

`[2H][C@](Nc1cc(Cl)c2ncc(C#N)c(NCC3(CC)CCC3)c2c1)(c1ccc(F)cc1)c1cn(C2CC2)nn1` [Example 261, (S)-8-chloro-6-(((1-cyclopropyl-1H-1,2,3-triazol-4-yl)(4-fluorophenyl)methyl-d)amino)-4-(((1-ethylcyclobutyl)methyl)amino)quinoline-3-carbonitrile]: the EC50 was determined as 504 nM.

`CC(C)(C)N1CCC(n2cc([C@@H](Nc3cc(Cl)c4ncc(C#N)c(Nc5cc(F)c(F)c(Cl)c5)c4c3)c3ccc(Cl)cc3)nn2)CC1` [Example 661, (S)-6-(((1-(1-(tert-butyl)piperidin-4-yl)-1H-1,2,3-triazol-4-yl)(4-chlorophenyl)methyl)amino)-8-chloro-4-((3-chloro-4,5-difluorophenyl)amino)quinoline-3-carbonitrile]: the concentration for a half-maximal effect (EC50) stood at 1090 nM.

Regarding `CC(C)(C)N1CCC(n2cc([C@@H](Nc3cc(Cl)c4ncc(C#N)c(Nc5ccc(F)c(Cl)c5Cl)c4c3)c3ccc(Cl)cc3)nn2)CC1` [Example 665, (S)-6-(((1-(1-(tert-butyl)piperidin-4-yl)-1H-1,2,3-triazol-4-yl)(4-chlorophenyl)methyl)amino)-8-chloro-4-((2,3-dichloro-4-fluorophenyl)amino)quinoline-3-carbonitrile], the EC50 is 1970 nM.

For `CC(C)(C)N1CCC(n2cc([C@@H](Nc3cc(Cl)c4ncc(C#N)c(Nc5cccc(Cl)c5)c4c3)c3ccc(Cl)cc3)nn2)CC1` [Example 776, (S)-6-(((1-(1-(tert-butyl)piperidin-4-yl)-1H-1,2,3-triazol-4-yl)(4-chlorophenyl)methyl)amino)-8-chloro-4-((3-chlorophenyl)amino)quinoline-3-carbonitrile], the EC50 came out at 1240 nM.

Turning to `CC(C)(C)N1CCC(n2cc([C@@H](Nc3cc(Cl)c4ncc(C#N)c(Nc5csc(Cl)c5)c4c3)c3ccccc3)nn2)CC1` [Example 641, (S)-6-(((1-(1-(tert-butyl)piperidin-4-yl)-1H-1,2,3-triazol-4-yl)(phenyl)methyl)amino)-8-chloro-4-((5-chlorothiophen-3-yl)amino)quinoline-3-carbonitrile], the concentration for a half-maximal effect (EC50) came out at 1530 nM.

Regarding `CC[C@@H](Nc1c(C#N)cnc2c(Cl)cc(N[C@@H](c3ccc(F)cc3)c3cn(-c4ccccc4)nn3)cc12)c1ccccc1` [Example 392, 8-chloro-6-(((S)-(4-fluorophenyl)(1-phenyl-1H-1,2,3-triazol-4-yl)methyl)amino)-4-(((R)-1-phenylpropyl)amino)quinoline-3-carbonitrile], the half-maximal effective concentration (EC50) was 308 nM.

Take `[2H][C@](Nc1cc(Cl)c2ncc(C#N)c(NCC3(C)CCOCC3)c2c1)(c1ccc(F)cc1)c1cn(-c2cccnc2)nn1` [Example 332, (S)-8-chloro-6-(((4-fluorophenyl)(1-(pyridin-3-yl)-1H-1,2,3-triazol-4-yl)methyl-d)amino)-4-(((4-methyltetrahydro-2H-pyran-4-yl)methyl)amino)quinoline-3-carbonitrile]: the EC50 came to 426 nM.

Take `CC(C)n1cc([C@@H](Nc2cc(Cl)c3ncc(C#N)c(Nc4ccc(F)c(Cl)c4)c3c2)c2cccc(COCCN(C)C)c2)nn1` [Compound 40]: the EC50 was 1260 nM.

For `N#CCn1cc([C@@H](Nc2cc(Cl)c3ncc(C#N)c(Nc4ccc(F)c(Cl)c4)c3c2)c2ccc(F)cc2)nn1` [Example 815, (S)-8-chloro-4-((3-chloro-4-fluorophenyl)amino)-6-(((1-(cyanomethyl)-1H-1,2,3-triazol-4-yl)(4-fluorophenyl)methyl)amino) quinoline-3-carbonitrile], the 50% effective concentration (EC50) was 311 nM.

Regarding `N#Cc1cnc2c(Cl)cc(N[C@@H](c3ccccc3)c3c[nH]nn3)cc2c1Nc1cnc(F)c(F)c1` [Example 582, (S)-8-chloro-4-((5,6-difluoropyridin-3-yl)amino)-6-((phenyl(1H-1,2,3-triazol-4-yl)methyl)amino)quinoline-3-carbonitrile], the 50% effective concentration (EC50) turned out to be 734 nM.

Staying with this assay, now noted: Homo sapiens, Monocyte, read-out: EC50 TNF.
As to `[2H][C@](Nc1cc(Cl)c2ncc(C#N)c(NC3CN4CCC3CC4)c2c1)(c1ccc(F)cc1)c1cn(C2CC2)nn1` (stereo partly drawn) [Example 317, 8-chloro-6-(((S)-(1-cyclopropyl-1H-1,2,3-triazol-4-yl)(4-fluorophenyl)methyl-d)amino)-4-(quinuclidin-3-ylamino)quinoline-3-carbonitrile], the EC50 stood at 8260 nM.

The same assay, now with this note: LPS-stimulated human monocytes, TNFα TR-FRET; read-out: EC50 TNF.
On to `CC(C)(C)CNc1c(C#N)cnc2c(Cl)cc(NC(c3cn(C4(CO)CC4)nn3)c3ccccc3Cl)cc12` (stereo not drawn) [Example 964, 8-chloro-6-(((2-chlorophenyl) (1-(1-(hydroxymethyl)cyclopropyl)-1H-1,2,3-triazo1-4-yl)methyl-d)amino)-4-(neopentylamino)quinoline-3-carbonitrile], for which the EC50 worked out at 254 nM.

Still in this assay, the particulars now being: second value of the cell IC50/EC50; human monocytes, 50 pg/ml LPS, 4 hours.
As to `CCN1CCC(n2cc(CNc3cc(Cl)c4ncc(C#N)c(Nc5ccc(F)c(Cl)c5)c4c3)nn2)CC1` [Comparative Example 1, reference compound], the “IC50/EC50 [nM]: EC50 (TNFα, monocytes)” value is listed as 310 nM.

The target in another assay is T1, human Cot catalytic domain (30-397 amino acids) (Homo sapiens, UniProt P41279).
T1 construct: Purified recombinant human Cot catalytic domain (30-397 amino acids) was purchased from Cama Biosciences; purchased Cama Biosciences (so in the source)
T1 sequence (P41279 30-397): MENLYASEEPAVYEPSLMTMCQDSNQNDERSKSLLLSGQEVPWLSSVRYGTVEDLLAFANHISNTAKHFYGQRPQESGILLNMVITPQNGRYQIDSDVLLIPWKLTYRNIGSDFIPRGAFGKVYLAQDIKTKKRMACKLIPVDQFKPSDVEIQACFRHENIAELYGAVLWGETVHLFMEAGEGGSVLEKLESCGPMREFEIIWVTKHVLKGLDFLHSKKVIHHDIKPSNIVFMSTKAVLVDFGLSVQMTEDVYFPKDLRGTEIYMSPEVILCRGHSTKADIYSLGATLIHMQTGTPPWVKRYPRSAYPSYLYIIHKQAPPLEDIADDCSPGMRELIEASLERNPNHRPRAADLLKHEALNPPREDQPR
The assay can be described thus: High Throughput Cot Biochemical Assay (KinEASE TR-FRET). As to conditions: Cot KinEASE TR-FRET (HTRF) biochemical assay, 400 μM ATP; read-out: IC50 HTRF. The method, boiled down: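 Phosphorylation of 1 μM XL665-STK3 peptide by 5 nM Cot catalytic domain was measured by time-resolved FRET using a europium […] antibody. ATP was 400 μM; buffer was 10 mM MOPS pH 7.0 with Mg2+ and DTT.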
As to `[2H][C@@](Nc1cc(Cl)c2ncc(C#N)c(N[C@H](CCC#N)c3ccccc3)c2c1)(c1cn(C2CC2)nn1)c1cccc(C#N)c1C` [Example 136, 8-chloro-4-(((R)-3-cyano-1-phenylpropyl)amino)-6-(((S)-(3-cyano-2-methylphenyl)(1-cyclopropyl-1H-1,2,3-triazol-4-yl)methyl-d)amino) quinoline-3-carbonitrile], the IC50 amounted to 1 nM.

The same assay, now with this note: Cot KinEASE TR-FRET, 400 μM ATP; read-out: IC50 HTRF.
As for `CC(C)(C)CNc1c(C#N)cnc2c(C#N)cc(N[C@@H](c3ccc(F)cc3)c3cn(C4(c5cccnn5)CC4)nn3)cc12` [Example 987, (S)-6-(((4-fluorophenyl)(1-(1-(pyridazin-3-yl)cyclopropyl)-1H-1,2,3-triazol-4-yl)methyl)amino)-4-(neopentylamino)quinoline-3,8-dicarbonitrile], the IC50 was 32 nM.

For `N#Cc1cnc2c(Cl)cc(NC(c3ccc(F)cc3)c3nccs3)cc2c1Nc1ccc(F)c(Cl)c1` (stereo not drawn) [Example 782, 8-chloro-4-((3-chloro-4-fluorophenyl)amino)-6-(((4-fluorophenyl)(thiazol-2-yl)methyl)amino)quinoline-3-carbonitrile], the IC50 amounted to 444 nM.

For the molecule `CC(C)(C)N1CCC(n2cc([C@@H](Nc3cc(Cl)c4ncc(C#N)c(Nc5ccc(C#N)c(Cl)c5)c4c3)c3ccc(Cl)cc3)nn2)CC1` [Example 770, (S)-6-(((1-(1-(tert-butyl)piperidin-4-yl)-1H-1,2,3-triazol-4-yl)(4-chlorophenyl)methyl)amino)-8-chloro-4-((3-chloro-4-cyanophenyl)amino)quinoline-3-carbonitrile], the IC50 was 60 nM.

As for `CC1(C)CC(n2cc(C(Nc3cc(Cl)c4ncc(C#N)c(Nc5ccc(F)c(Cl)c5)c4c3)c3ccc(F)cc3)nn2)CCN1` (stereo not drawn) [Example 839, 8-chloro-4-((3-chloro-4-fluorophenyl)amino)-6-(((1-(2,2-dimethylpiperidin-4-yl)-1H-1,2,3-triazol-4-yl)(4-fluorophenyl)methyl)amino) quinoline-3-carbonitrile], the half-maximal inhibitory concentration (IC50) stood at 24 nM.
